Source: patent publication US6852713B2, “Lactam derivatives and methods of their use” (Adolor Corporation, priority 2003, dated 2005)

Assays:
[1] = molecular target: T1, cloned human κ opioid receptor (Homo sapiens, UniProt P41145); assay: In vitro binding assay, inhibition of [3H]diprenorphine binding, kappa; details: read-out: Ki against the human kappa receptor
T1 construct: expressed in transfected cells
Protocol: (§1) The potencies of the compounds of the invention were determined by testing the ability of a range of concentrations of each compound to inhibit the binding of the non-selective opioid antagonist, [^3H]diprenorphine, to the cloned human μ, κ, and δ opioid receptors, expressed in separate cell lines. IC50 values were obtained by nonlinear analysis of the data using GraphPad Prism version 3.00 for Windows (GraphPad Software, San Diego). Ki values were obtained by Cheng-Prusoff corrections of IC50 values.
(§2) The receptor binding method was a modification of the method of K. Raynor et al. (Mol. Pharmnacol. 1994, 45, 330-334). […] The filters were rinsed 4 times with 1 mL of cold 50 mM Tris HCl, pH 7.8 and radioactivity remaining on the filters determined by scintillation spectroscopy. Nonspecific binding was determined by the minimum values of the titration curves and was confirmed by separate assay wells containing 10 μM naloxone. Ki values were determined by Cheng-Prusoff corrections of IC50 values derived from nonlinear regression fits of 12 point titration curves using GraphPad Prism® version 3.00 for Windows (GraphPad Software, San Diego, Calif.).
(§3) To determine the equilibrium dissociation constant for the inhibitors (Ki), radioligand bound (cpm) in the presence of various concentrations of test compounds was measured. […]

[2] = molecular target: T2, cloned human μ opioid receptor (Homo sapiens, UniProt P35372); assay: In vitro binding assay, inhibition of [3H]diprenorphine binding, mu; details: kappa versus μ
T2 construct: expressed in transfected cells
T2 sequence (P35372 whole entry): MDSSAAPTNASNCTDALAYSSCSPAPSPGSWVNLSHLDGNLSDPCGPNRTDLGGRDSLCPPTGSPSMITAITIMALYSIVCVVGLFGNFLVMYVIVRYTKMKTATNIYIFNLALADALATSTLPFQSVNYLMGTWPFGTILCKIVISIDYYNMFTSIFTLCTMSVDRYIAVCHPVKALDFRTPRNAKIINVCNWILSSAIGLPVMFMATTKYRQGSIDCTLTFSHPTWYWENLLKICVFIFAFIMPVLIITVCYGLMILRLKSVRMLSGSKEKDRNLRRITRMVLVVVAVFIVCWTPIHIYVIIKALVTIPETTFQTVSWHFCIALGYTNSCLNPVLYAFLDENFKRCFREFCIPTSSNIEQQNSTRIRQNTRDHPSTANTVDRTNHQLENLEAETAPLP
Protocol: as §1, §2, §3

[3] = molecular target: T3, cloned human δ opioid receptor (Homo sapiens, UniProt P41143); assay: In vitro binding assay, inhibition of [3H]diprenorphine binding, delta; details: kappa versus δ
T3 construct: expressed in transfected cells
T3 sequence (P41143 whole entry): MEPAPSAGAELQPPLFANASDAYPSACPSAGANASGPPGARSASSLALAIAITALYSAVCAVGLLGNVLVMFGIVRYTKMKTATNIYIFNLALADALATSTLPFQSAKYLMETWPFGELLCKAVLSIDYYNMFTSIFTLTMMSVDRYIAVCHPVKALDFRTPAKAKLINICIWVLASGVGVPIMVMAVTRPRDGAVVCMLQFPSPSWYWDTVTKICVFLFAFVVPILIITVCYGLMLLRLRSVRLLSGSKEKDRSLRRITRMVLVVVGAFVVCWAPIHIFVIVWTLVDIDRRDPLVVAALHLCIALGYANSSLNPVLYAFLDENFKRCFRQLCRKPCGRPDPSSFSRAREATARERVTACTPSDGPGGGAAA
Protocol: as §1, §2, §3

cloned human a receptors = molecular target: T4, cloned human a receptors (Homo sapiens, UniProt P41145); assay: Stimulation of [35S]GTPγS binding to membranes (agonist potency); format: biochemical
T4 construct: expressed in transfected cells
T4 sequence (P41145 whole entry): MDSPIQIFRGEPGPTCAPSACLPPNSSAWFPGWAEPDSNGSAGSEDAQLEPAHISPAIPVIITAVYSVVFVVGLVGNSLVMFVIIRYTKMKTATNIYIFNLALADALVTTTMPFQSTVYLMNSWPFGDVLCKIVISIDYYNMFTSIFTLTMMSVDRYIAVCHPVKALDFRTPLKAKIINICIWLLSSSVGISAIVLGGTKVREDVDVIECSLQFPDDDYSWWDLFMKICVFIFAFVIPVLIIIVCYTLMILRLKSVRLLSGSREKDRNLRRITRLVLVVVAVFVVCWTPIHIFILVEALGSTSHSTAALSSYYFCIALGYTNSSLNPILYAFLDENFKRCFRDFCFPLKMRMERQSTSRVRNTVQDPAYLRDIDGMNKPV
Protocol: The potencies of the agonists were assessed by their abilities to stimulate [^35S]GTPγS binding to membranes containing the cloned human a receptors.
To determine the EC50 value, which was the concentration to give half-maximal stimulation of [^35S]GTPγS binding, the amount of [^35S]GTPγS bound in the presence of various concentrations of agonists was measured. The EC50 value was then determined.

[4] = tested on: formalin-induced flinching; assay: In vivo formalin-induced nociception assay; design: species or system male Sprague-Dawley rats; details: dose of 100 μg, i.paw
Description: Administration of formalin into the paw results in a localized inflammation and a pain response that is moderate in intensity and continuous in duration. Unlike many other assays of nociception, the formalin assay measures tonic pain that is a result of tissue injury, and therefore is a model which is more relevant to clinical pain states in humans (see Tjolsen et al., Pain 51: 5-17, 1992). In the rat the response to formalin-induced pain consists of spontaneous flinching behavior, characterized by paw lifting and paw shaking, and a rapid vibration of the paw after drawing it under the body. […] The early or acute phase lasts from 0-5 minutes post-formalin and is followed by a quiescent period lasting approximately 15 minutes. The tonic phase occurs from 20-35 minutes following formalin injection and is the interval where the number of flinching responses is maximal. […]
Inflammation is induced by subcutaneous injection of […] of a 5% formalin solution into the dorsal surface of the right hind paw of male Sprague-Dawley rats weighing 70-90 g. Injections of drug are given into the dorsal surface of the paw prior to formalin injection, and flinching behavior is quantitated by counting the number of responses that occur during the tonic phase of pain, lasting from 20-35 min after formalin injection. […]

[5] = tested on: acetic acid-induced writhing; assay: Acetic acid-induced writhing; format: in vivo, male CF-1 mice; details: Mus musculus, po; administered orally; read-out: ED50, block of acetic acid-induced writhing
Protocol: Injection of acetic acid into the peritoneal cavity is used as the noxious stimulus, and the number of writhing responses that occur in response to acetic acid are counted in order to quantif the response to pain.
The writhing assay is adapted from the procedure originally described by Taber et al. (J. Pharmacol. Exp. Ther. 169: 29-38,1986), using male CF-1 mice weighing 20-25 g. Animals are treated with various doses of drugs prior to the administration of an i.p. injection of 0.6% acetic acid solution. Mice are then placed into observation chambers and the number of writhing responses, as defined by a full hind limb extension and retraction, are recorded.
The mean number of writhing responses is calculated for vehicle-treated control mice, and the percent inhibition (% I) of writhing is calculated for each mouse that is treated with drug using the following formula: % I=100×(mean control writhing responses−individual test responses)(mean control writhing responses) (f) Hyperalgesia Induced by Tape Stripping

T1 sequence (P41145 whole entry): as above

`O=C1C(c2ccc(Cl)c(Cl)c2)CC=CCN1[C@H](CN1CCCC1)c1ccccc1` (stereo partly drawn) [Example 9, 3-(3,4-Dichloro-phenyl)-1-(1-(S)-phenyl-2-pyrrolidin-1-yl-ethyl)-1,3,4,7-tetrahydro-azepin-2-one] was tested, and the Ki [1] was 1 nM, the “selectivity versus the human μ receptor” value [2] was over 100 × and the “selectivity versus the human δ receptor” value [3] was over 100 ×. For the same molecule, the EC50 (cloned human a receptors) was 2.5 nM, the “% A (percent antagonism of formalin-induced flinching)” value [4] was over 80% and the ED50 [5] was under 30 mg/kg.
